According to paper PMC11714206, “Massively Parallel Screening of Toll/Interleukin‐1 Receptor (TIR)‐Derived Peptides Reveals Multiple Toll‐Like Receptors (TLRs)‐Targeting Immunomodulatory Peptides” (Advanced Science, 2024):
“And” between values parts separate entries of the source, which are not always exact repeats. Identical values can stand only once.

Target: T1, MyD88^TIR (Homo sapiens, UniProt Q99836)
T1 construct: MyD88 (residues 148–296); 6xHis; made in house; host or cells: E. coli BL21 (DE3)
T1 sequence (Q99836 148-296): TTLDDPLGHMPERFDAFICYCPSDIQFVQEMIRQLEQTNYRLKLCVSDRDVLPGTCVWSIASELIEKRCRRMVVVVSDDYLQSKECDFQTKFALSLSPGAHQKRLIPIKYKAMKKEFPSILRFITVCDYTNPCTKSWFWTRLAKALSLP
Assay: T‐Surf phage library (P8 and P3) selection against MyD88^TIR, four rounds, NGS read counts
Assay type: binding
Details: for P3_MyD88 Rank (after) / P3_MyD88 Rank (before): P3 library; for P8_MyD88 Rank (after) / P8_MyD88 Rank (before): P8 library; for Population: 4th round of selection against MyD88 TIR, share of NGS reads
Summary of the method: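 Read counts come from NGS of phage pools enriched over four selection rounds on the plate‐coated TIR domain (5 µg mL^−1). Each round: 1 h phage binding at room temperature after 0.2% BSA blocking, Tween washes, acid elution, amplification in E. coli TG1 with M13KO7 helper.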

[1] = P3_MyD88: rank by count after grouping
[2] = P3_MyD88: rank by count before grouping
[3] = P8_MyD88: rank by NGS read count after grouping
[4] = P8_MyD88: rank by NGS read count before grouping
[5] = selection against MyD88 TIR, rank by count after grouping
[6] = selection against MyD88 TIR, rank by count before grouping
[7] = P3_MyD88 pool: P3 T-Surf phage library
[8] = selection against MyD88, rank by count after grouping
[9] = selection against MyD88, rank by count before grouping
[10] = P8_MyD88 pool: P8 T-Surf phage library
[11] = P8_MyD88: rank by count after grouping
[12] = P8_MyD88: rank by count before grouping
[13] = selection against MyD88, rank after grouping
[14] = selection against MyD88, rank before grouping
[15] = 4R selection against MyD88, rank after grouping
[16] = 4R selection against MyD88, rank before grouping

## NQWPNALTAAANLRGW
[1]
  Rank (after): 132
[2]
  Rank (before): 3534

## PQELECIYKRLVSLIL
[3]
  Rank (after): 1011
[4]
  Rank (before): 3504

## YYLEPIYLRKQSGDFG
[5]
  P3_MyD88 Rank (after): 283
[6]
  P3_MyD88 Rank (before): 1475

## ELDFSHFWLFDGDAGEEP
[5]
  P8_MyD88 Rank (after): 229
[6]
  P8_MyD88 Rank (before): 476

## SSFRESLWRLLELSKK
[7]
  Population: 0.0032%

## NQWRNALTAAANLGGL
[8]
  P3_MyD88 Rank (after): 701
[9]
  P3_MyD88 Rank (before): 3513

## DPQDLDWFYARLVRLF
[5]
  P8_MyD88 Rank (after): 270
[6]
  P8_MyD88 Rank (before): 2751

## DPQDLDWFYERLVNLF
[10]
  Population: 0.00925%

## IFISHLYNSLTNAGIY
[11]
  Rank (after): 178
[12]
  Rank (before): 227

## YLKWAIRGFGIVCVL
[5]
  P3_MyD88 Rank (after): 238
[6]
  P3_MyD88 Rank (before): 862

## ENYAFSSWALGELLHI
[5]
  P8_MyD88 Rank (after): 192
[6]
  P8_MyD88 Rank (before): 247

## SELRVVDDGSVSPLK
[5]
  P3_MyD88 Rank (after): 210
[6]
  P3_MyD88 Rank (before): 3038

## DPQDLVWFYERLVSLF
[10]
  Population: 0.00886%

## YASSSWYLDELLQIA
[11]
  Rank (after): 402
[12]
  Rank (before): 1870

## YASNDDNDYYWVTHVRLRHL
[3]
  Rank (after): 1023
[4]
  Rank (before): 1909

## DHHLDLSRGKSIKPDILG
[1]
  Rank (after): 435
[2]
  Rank (before): 2053

## DLLVLEWFYERVFSQM
[8]
  P8_MyD88 Rank (after): 713
[9]
  P8_MyD88 Rank (before): 2590

## SSRWALDELVQILHARELF
[3]
  Rank (after): 887
[4]
  Rank (before): 3809

## PQDLGWYYERLVSLIL
[3]
  Rank (after): 888
[4]
  Rank (before): 3421

## EWLREQLRSARKERLP
[1]
  Rank (after): 442
[2]
  Rank (before): 2126

## NELVHVWSSKANSLVG
[8]
  P8_MyD88 Rank (after): 696
[9]
  P8_MyD88 Rank (before): 3874

## WSQPEFRAAMQAVLEL
[5]
  P8_MyD88 Rank (after): 274
[6]
  P8_MyD88 Rank (before): 530

## EWFYERLFSQMRKDIK
[5]
  P8_MyD88 Rank (after): 275
[6]
  P8_MyD88 Rank (before): 586

## FDASTWWLRELLQIA
[11]
  Rank (after): 413
[12]
  Rank (before): 814

## EWIREQLRPALKNGW
[1]
  Rank (after): 434
[2]
  Rank (before): 2155

## DHHLDLPRGKANKPEILD
[13]
  P3_MyD88 Rank (after): 555
[14]
  P3_MyD88 Rank (before): 2035

## KARQFGALREEKLRAA
[1]
  Rank (after): 425
[2]
  Rank (before): 3599

## YAFTGHLQRYLVQRCV
[5]
  P3_MyD88 Rank (after): 234
[6]
  P3_MyD88 Rank (before): 1531

## LKWGDERFWERLVYVM
[5]
  P8_MyD88 Rank (after): 191
[6]
  P8_MyD88 Rank (before): 250

## YLRWGYPWFGDRLRFA
[13]
  P3_MyD88 Rank (after): 539
[14]
  P3_MyD88 Rank (before): 1562

## LEANDSLFWDRLYY
[11]
  Rank (after): 403
[12]
  Rank (before): 1189

## LGYHCMDWEYFVGIED
[11]
  Rank (after): 390
[12]
  Rank (before): 3228

## SMMPSSDFWKELALAL
[5]
  P8_MyD88 Rank (after): 217
[6]
  P8_MyD88 Rank (before): 369

## DPQDLNGFMNVCLAR
[13]
  P8_MyD88 Rank (after): 488
[14]
  P8_MyD88 Rank (before): 2947

## SSFREALWRLLELSKN
[1]
  Rank (after): 167
[2]
  Rank (before): 3222

## DWGWDYLLPQLEGSAG
[3]
  Rank (after): 990
[4]
  Rank (before): 2482

## DPQELDGFYERLVSLF
[11]
  Rank (after): 401
[12]
  Rank (before): 3015

## RELGVVDDGSVSALEM
[1]
  Rank (after): 410
[2]
  Rank (before): 2692

## MNWCMCGAAKRIAWW
[1]
  Rank (after): 170
[2]
  Rank (before): 1156

## SQRADCSWEWQKMLYP
[3]
  Rank (after): 953
[4]
  Rank (before): 1659

## YLRADDSCSWEKLRYA
[8]
  P8_MyD88 Rank (after): 694
[9]
  P8_MyD88 Rank (before): 2043

## YTELTSSGFHTFRDND
[5]
  P3_MyD88 Rank (after): 198
[6]
  P3_MyD88 Rank (before): 1713

## LADALERYGIMFIIDK
[11]
  Rank (after): 184
[12]
  Rank (before): 236

## AVDNETDKIQTPLKNE
[5]
  P3_MyD88 Rank (after): 231
[6]
  P3_MyD88 Rank (before): 1895

## SDLRVVDDGSVSPLAM
[8]
  P3_MyD88 Rank (after): 711
[9]
  P3_MyD88 Rank (before): 3005

## YSQHDVLWVKNFLSHI
[3]
  Rank (after): 1025
[4]
  Rank (before): 2122

## SSSREGLWRLLELSKK
[7]
  Population: 0.0032%

## DLVWDYLLPNLEGPAG
[10]
  Population: 0.00886%

## SWAVDELLQILHARELF
[15]
  P8_MyD88 Rank (after): 625
[16]
  P8_MyD88 Rank (before): 3756

## DPQDLDWFYERLEPV
[13]
  P8_MyD88 Rank (after): 530
[14]
  P8_MyD88 Rank (before): 2783

## YTALTNSGIHTLRDND
[1]
  Rank (after): 174
[2]
  Rank (before): 1691

## DPQDLGWFYERLISQILK
[15]
  P8_MyD88 Rank (after): 624
[16]
  P8_MyD88 Rank (before): 2726

## DPQDLDWFYERLVNLL
[11]
  Rank (after): 98
[12]
  Rank (before): 349

## WTLNELQTILNILDIG
[15]
  P8_MyD88 Rank (after): 656
[16]
  P8_MyD88 Rank (before): 1656

## SSFREGLWRLLELRKN
[15]
  P3_MyD88 Rank (after): 588
[16]
  P3_MyD88 Rank (before): 3169

## PQDLAWLYERPLSLIL
[3]
  Rank (after): 1015
[4]
  Rank (before): 3424

## GRYEELFMTETDERLP
[8]
  P3_MyD88 Rank (after): 735
[9]
  P3_MyD88 Rank (before): 1853

## HFETTEGNFYKFFLFF
[11]
  Rank (after): 165
[12]
  Rank (before): 187
[10]
  Population: 0.00694%

## DSQVLDWFYERLVSLL
[3]
  Rank (after): 982
[4]
  Rank (before): 2496

## DPQDLDWCYERLVSRC
[11]
  Rank (after): 461
[12]
  Rank (before): 2817

## QGDPSYRLTLHYRDVN
[15]
  P3_MyD88 Rank (after): 591
[16]
  P3_MyD88 Rank (before): 2866

## SWYLDEVAKIIDAMKE
[11]
  Rank (after): 133
[12]
  Rank (before): 144
[10]
  Population: 0.0116%

## YLKWGYVVLGSSAFC
[8]
  P3_MyD88 Rank (after): 714
[9]
  P3_MyD88 Rank (before): 1574

## NQWRNALTAAANLV
[7]
  Population: 0.00378%

## NELVHEWSSKLMSLGV
[5]
  P3_MyD88 Rank (after): 287
[6]
  P3_MyD88 Rank (before): 3397

## NFVEYFVYQMMPDILE
[11]
  Rank (after): 153
[12]
  Rank (before): 167
[10]
  Population: 0.00886%

## WFLEPLEKILQAHGTT
[15]
  P8_MyD88 Rank (after): 600
[16]
  P8_MyD88 Rank (before): 1360

## FDARTWFFQEMGIIVE
[15]
  P8_MyD88 Rank (after): 603
[16]
  P8_MyD88 Rank (before): 1307

## DPQDLDWFYERRVCLF
[8]
  P8_MyD88 Rank (after): 733
[9]
  P8_MyD88 Rank (before): 2791

## DPQDLDWLYERLVRLF
[5]
  P8_MyD88 Rank (after): 238
[6]
  P8_MyD88 Rank (before): 2828

## GLYDELFMTETDERKR
[1]
  Rank (after): 439
[2]
  Rank (before): 1851

## LKVESWRQAQEKAGKL
[7]
  Population: 0.00349%

## DWVWDYLLPDLLGPAG
[8]
  P8_MyD88 Rank (after): 700
[9]
  P8_MyD88 Rank (before): 2416

## SRFREGLWPLLELSKK
[1]
  Rank (after): 156
[2]
  Rank (before): 3107

## GFREGLWRLLELSKK
[15]
  P3_MyD88 Rank (after): 669
[16]
  P3_MyD88 Rank (before): 1819

## YLKWGYPRFWDRLRCA
[5]
  P3_MyD88 Rank (after): 216
[6]
  P3_MyD88 Rank (before): 1602

## DWVWDYLLPIWKAQR
[8]
  P8_MyD88 Rank (after): 704
[9]
  P8_MyD88 Rank (before): 2449

## SSFREGLWRLL*LSKK
[7]
  Population: 0.00291%

## LFWDRLLYSLHVTE
[13]
  P8_MyD88 Rank (after): 569
[14]
  P8_MyD88 Rank (before): 3208

## LSRVPGVHDFRGLVDI
[1]
  Rank (after): 441
[2]
  Rank (before): 2377

## WALDERLIIQYANETM
[8]
  P8_MyD88 Rank (after): 679
[9]
  P8_MyD88 Rank (before): 1510

## SSFREGLWRLLELSKK
[7]
  Population: 0.00466% and 0.00437% and 0.00408% and 0.00378% and 0.00349% and 0.0032% and 0.00291%

## GSFREILLRLLDLSKK
[15]
  P3_MyD88 Rank (after): 671
[16]
  P3_MyD88 Rank (before): 1858
